Reference: EP0649467B1, “SELF-STABILIZED OLIGONUCLEOTIDES AS THERAPEUTIC AGENTS” (HYBRIDON, Inc., priority 1992, dated 1994)
Where two headings read alike, the source gives them in different places.

Legend:
[1] = system: HIV-1; assay: Anti-HIV activity: p24 expression by ELISA in HIV-1 infected H9 lymphocytes; assay type: cell-based; parameters: Inhibition of p24 (%): dose or concentration left out as unconfirmed; conditions: for Inhibition of p24 (%): three days; for IC50: Human immunodeficiency virus 1, Lymphocyte, p24 expression, positive control
Protocol: H9 lymphocytes were infected with HIV-1 virions (≡0.01 - 0.1 TCID50/cell) for one hour at 37°C. After one hour, unadsorbed virions were washed and the infected cells were divided among wells of 24 well plates. To the infected cells, an appropriate concentration (from stock solution) of oligonucleotide was added to obtain the required concentration in 2 ml medium. In a positive control experiment ddC or AZT was added. The cells were then cultured for three days. At the end of three days, supernatant from the infected culture was collected and measured for p24 expression by ELISA. The level of expression of p24 was compared between oligonucleotide treated and untreated (no drug) infected cells.

[2] = system: H9 lymphocytes; assay: Cytotoxicity by trypan blue dye exclusion; assay type: cell-based; parameters: dose or concentration left out as unconfirmed
Source text: Cytotoxicity of oligonucleotides was studied by culturing the cells with increasing concentration of oligonucleotide and by the trypan blue dye exclusion method.

[3] = Experiment 1, concentration 0.04
[4] = Experiment 1, concentration 0.08
[5] = Experiment 1, concentration 0.2
[6] = Experiment 1, concentration .0016
[7] = Experiment 2, concentration 0.0016
[8] = Experiment 2, concentration 0.008
[9] = Experiment 2, concentration 0.04
[10] = Experiment 2, concentration 0.2

## Cc1cn([C@H]2C[C@H](N=[N+]=[N-])[C@@H](CO)O2)c(=O)[nH]c1=O [AZT]
[1]; [3]
  Inhibition of p24 (%): 73%
[1]; [4]
  Inhibition of p24 (%): 44%
[1]; [5]
  Inhibition of p24 (%): 90%
[1]; [6]
  Inhibition of p24 (%): 6%
[1]; [7]
  Inhibition of p24 (%): 6%
[1]; [8]
  Inhibition of p24 (%): 5%
[1]; [9]
  Inhibition of p24 (%): 65%
[1]; [10]
  Inhibition of p24 (%): 89%
[1]; Experiment 1, read-out: IC50
  IC50: 37 nM
[1]; Experiment 2
  IC50: 100 nM
[2]; [3]
  % Cell Survival: 98%
[2]; [4]
  % Cell Survival: 104%
[2]; [5]
  % Cell Survival: 95%
[2]; [6]
  % Cell Survival: 108%
[2]; [7]
  % Cell Survival: 103%
[2]; [8]
  % Cell Survival: 101%
[2]; [9]
  % Cell Survival: 98%
[2]; [10]
  % Cell Survival: 93%
